Results from US11998546B2, “Pharmaceutical combinations comprising a histone deacetylase inhibitor and epothilone and methods of use thereof” (ACETYLON PHARMACEUTICALS, INC., priority 2016, dated 2024).

Columns and labels:
TOV-21G cells [1] = test: Cell proliferation of TOV-21G cells, crystal violet staining; assay type: cell-based; conditions: seven days, Compound B (2 μM) and/or epothilone B (4 nM)
Description: The cells were then stained with crystal violet (hexamethyl pararosaniline chloride) dye. The crystal violet dye was extracted in 10% v/v acetic acid, and absorbance was measured in triplicate at a wavelength of 540 nm on a spectrophotometer (FIG. 2B).

TOV-21G cells [2] = test: Multipolar spindle formation in TOV-21G cells (DAPI, NuMA, α-tubulin staining); assay type: cell-based; conditions: 24 hours, 2 μM Compound B combined with 0.5 nM epothilone B vs single agents
Description: The cells were then stained with DAPI (to label DNA) and antibodies for α-tubulin and the spindle pole marker NuMA.
Cells in mitosis were then manually counted and scored for the presence of normal bipolar spindles or abnormal multipolar spindles. The frequency of cells with multipolar spindles was determined and scored in at least 100 cells from each treatment condition.

O=C(CCCCCCNC(=O)c1cnc(N(c2ccccc2)c2ccccc2Cl)nc1)NO [Compound B, 2-((2-chlorophenyl)(phenyl)amino)-N-(7-(hydroxyamino)-7-oxoheptyl)pyrimidine-5-carboxamide]
inhibition of tumor cell proliferation (crystal violet absorbance at 540 nm) (TOV-21G cells [1]): inhibition of tumor cell proliferation by Epotholine B was enhanced | frequency of cells with multipolar mitotic spindles (TOV-21G cells [2]): enhanced the multipolar spindle formation induced by epothilone
